In patent publication US8445492B2, “Method for inhibiting growth of cancer cells and cell telomere and diseases of cell proliferation by using heteroannelated anthraquinone derivative compounds” (National Defense Medical Center, priority 2008, dated 2013):

Key:
Assay type in all cases: cell-based
M14 = test: NCI DTP in-vitro dose response, Melanoma
UACC-62 = test: NCI DTP in-vitro dose response, Melanoma
LOX IMVI = test: NCI DTP in-vitro dose response, Melanoma
SK-MEL-5 = test: NCI DTP in-vitro dose response, Melanoma
SK-MEL-28 = test: NCI DTP in-vitro dose response, Melanoma
UACC-257 = test: NCI DTP in-vitro dose response, Melanoma
MALME-3M = test: NCI DTP in-vitro dose response, Melanoma
MCF7 = test: NCI DTP in-vitro dose response, Breast Cancer
MDA-MB-435 = test: NCI DTP in-vitro dose response, Breast Cancer
BT-549 = test: NCI DTP in-vitro dose response, Breast Cancer
NCI/ADR-RES = test: NCI DTP in-vitro dose response, Breast Cancer; conditions: NCI/ADR-RES
MDA-MB-231/ATCC = test: NCI DTP in-vitro dose response, Breast Cancer; conditions: MDA-MB-231/ATCC
HS 578T = test: NCI DTP in-vitro dose response, Breast Cancer; conditions: HS 578T
T-47D = test: NCI DTP in-vitro dose response, Breast Cancer; conditions: T-47D
[1] = read-out: LC50 (the source's name)

Structure (SMILES): CCc1nc2ccc3c(c2[nH]1)C(=O)c1ccccc1C3=O [TABLE 4-5]
- CC50 (M14): > 100 µM
- TGI (M14): >1.00E−4
- Percent Growth (M14; Log10 Concentration −4.0): 25%
- Percent Growth (M14; Log10 Concentration −5.0): 50%
- Percent Growth (M14; Log10 Concentration −6.0): 78%
- Percent Growth (M14; Log10 Concentration −7.0): 95%
- Percent Growth (M14; Log10 Concentration −8.0): 88%
- GI50 (M14; read-out: GI50): 10.2 µM
- CC50 (UACC-62): > 100 µM
- TGI (UACC-62): >1.00E−4
- Percent Growth (UACC-62; Log10 Concentration −4.0): 26%
- Percent Growth (UACC-62; Log10 Concentration −5.0): 41%
- Percent Growth (UACC-62; Log10 Concentration −6.0): 85%
- Percent Growth (UACC-62; Log10 Concentration −7.0): 92%
- Percent Growth (UACC-62; Log10 Concentration −8.0): 83%
- GI50 (UACC-62; read-out: GI50): 6.18 µM
- CC50 (LOX IMVI): > 100 µM
- TGI (LOX IMVI): >1.00E−4
- Percent Growth (LOX IMVI; Log10 Concentration −4.0): 10%
- Percent Growth (LOX IMVI; Log10 Concentration −5.0): 33%
- Percent Growth (LOX IMVI; Log10 Concentration −6.0): 83%
- Percent Growth (LOX IMVI; Log10 Concentration −7.0): 91%
- Percent Growth (LOX IMVI; Log10 Concentration −8.0): 101%
- GI50 (LOX IMVI; read-out: GI50): 4.61 µM
- CC50 (SK-MEL-5): > 100 µM
- TGI (SK-MEL-5): 8.36E−6
- Percent Growth (SK-MEL-5; Log10 Concentration −4.0): −19%
- Percent Growth (SK-MEL-5; Log10 Concentration −5.0): −5%
- Percent Growth (SK-MEL-5; Log10 Concentration −6.0): 59%
- Percent Growth (SK-MEL-5; Log10 Concentration −7.0): 42%
- Percent Growth (SK-MEL-5; Log10 Concentration −8.0): 44%
- CC50 (SK-MEL-28): > 100 µM
- TGI (SK-MEL-28): 6.36E−5
- Percent Growth (SK-MEL-28; Log10 Concentration −4.0): −12%
- Percent Growth (SK-MEL-28; Log10 Concentration −5.0): 48%
- Percent Growth (SK-MEL-28; Log10 Concentration −6.0): 79%
- Percent Growth (SK-MEL-28; Log10 Concentration −7.0): 84%
- Percent Growth (SK-MEL-28; Log10 Concentration −8.0): 89%
- GI50 (SK-MEL-28; read-out: GI50): 8.58 µM
- CC50 (UACC-257): > 100 µM
- TGI (UACC-257): >1.00E−4
- Percent Growth (UACC-257; Log10 Concentration −4.0): 18%
- Percent Growth (UACC-257; Log10 Concentration −5.0): 66%
- Percent Growth (UACC-257; Log10 Concentration −6.0): 96%
- Percent Growth (UACC-257; Log10 Concentration −7.0): 84%
- Percent Growth (UACC-257; Log10 Concentration −8.0): 84%
- GI50 (UACC-257; read-out: GI50): 21.6 µM
- CC50 (MALME-3M): > 100 µM
- TGI (MALME-3M): 8.69E−5
- Percent Growth (MALME-3M; Log10 Concentration −4.0): −2%
- Percent Growth (MALME-3M; Log10 Concentration −5.0): 26%
- Percent Growth (MALME-3M; Log10 Concentration −6.0): 83%
- Percent Growth (MALME-3M; Log10 Concentration −7.0): 84%
- Percent Growth (MALME-3M; Log10 Concentration −8.0): 87%
- GI50 (MALME-3M; read-out: GI50): 3.75 µM

Structure (SMILES): O=C1c2ccccc2C(=O)c2c1ccc1nccnc21 [TABLE 5-9]
- TGI (MCF7; MCF7): 2.98E−5
- Percent Growth (MCF7; MCF7, Log10 Concentration −4.0): −29%
- Percent Growth (MCF7; MCF7, Log10 Concentration −5.0): 27%
- Percent Growth (MCF7; MCF7, Log10 Concentration −6.0): 45%
- Percent Growth (MCF7; MCF7, Log10 Concentration −7.0): 80%
- Percent Growth (MCF7; MCF7, Log10 Concentration −8.0): 81%
- GI50 (MCF7; MCF7, read-out: GI50): 0.722 µM
- CC50 (MCF7; MCF7, read-out: LC50 (the source's name)): > 100 µM
- TGI (MDA-MB-435; MDA-MB-435): 2.37E−5
- Percent Growth (MDA-MB-435; MDA-MB-435, Log10 Concentration −4.0): −95%
- Percent Growth (MDA-MB-435; MDA-MB-435, Log10 Concentration −5.0): 57%
- Percent Growth (MDA-MB-435; MDA-MB-435, Log10 Concentration −6.0): 101%
- Percent Growth (MDA-MB-435; MDA-MB-435, Log10 Concentration −7.0): 97%
- Percent Growth (MDA-MB-435; MDA-MB-435, Log10 Concentration −8.0): 101%
- GI50 (MDA-MB-435; MDA-MB-435, read-out: GI50): 11.1 µM
- CC50 (MDA-MB-435; MDA-MB-435, read-out: LC50 (the source's name)): 50.4 µM
- TGI (BT-549; BT-549): 9.35E−5
- Percent Growth (BT-549; BT-549, Log10 Concentration −4.0): −2%
- Percent Growth (BT-549; BT-549, Log10 Concentration −5.0): 55%
- Percent Growth (BT-549; BT-549, Log10 Concentration −6.0): 83%
- Percent Growth (BT-549; BT-549, Log10 Concentration −7.0): 85%
- Percent Growth (BT-549; BT-549, Log10 Concentration −8.0): 95%
- GI50 (BT-549; BT-549, read-out: GI50): 12.2 µM
- CC50 (BT-549; BT-549, read-out: LC50 (the source's name)): > 100 µM
- TGI (NCI/ADR-RES): >1.00E−4
- Percent Growth (NCI/ADR-RES; Log10 Concentration −4.0): 8%
- Percent Growth (NCI/ADR-RES; Log10 Concentration −5.0): 38%
- Percent Growth (NCI/ADR-RES; Log10 Concentration −6.0): 87%
- Percent Growth (NCI/ADR-RES; Log10 Concentration −7.0): 92%
- Percent Growth (NCI/ADR-RES; Log10 Concentration −8.0): 95%
- GI50 (NCI/ADR-RES; read-out: GI50): 5.68 µM
- CC50 (NCI/ADR-RES; [1]): > 100 µM
- TGI (MDA-MB-231/ATCC): >1.00E−4
- Percent Growth (MDA-MB-231/ATCC; Log10 Concentration −4.0): 14%
- Percent Growth (MDA-MB-231/ATCC; Log10 Concentration −5.0): 64%
- Percent Growth (MDA-MB-231/ATCC; Log10 Concentration −6.0): 85%
- Percent Growth (MDA-MB-231/ATCC; Log10 Concentration −7.0): 88%
- Percent Growth (MDA-MB-231/ATCC; Log10 Concentration −8.0): 100%
- GI50 (MDA-MB-231/ATCC; read-out: GI50): 19.1 µM
- CC50 (MDA-MB-231/ATCC; [1]): > 100 µM
- TGI (HS 578T): 9.14E−5
- Percent Growth (HS 578T; Log10 Concentration −4.0): −2%
- Percent Growth (HS 578T; Log10 Concentration −5.0): 59%
- Percent Growth (HS 578T; Log10 Concentration −6.0): 81%
- Percent Growth (HS 578T; Log10 Concentration −7.0): 90%
- Percent Growth (HS 578T; Log10 Concentration −8.0): 88%
- GI50 (HS 578T; read-out: GI50): 14.1 µM
- CC50 (HS 578T; [1]): > 100 µM
- TGI (T-47D): 7.51E−5
- Percent Growth (T-47D; Log10 Concentration −4.0): −8%
- Percent Growth (T-47D; Log10 Concentration −5.0): 56%
- Percent Growth (T-47D; Log10 Concentration −6.0): 71%
- Percent Growth (T-47D; Log10 Concentration −7.0): 80%
- Percent Growth (T-47D; Log10 Concentration −8.0): 85%
- GI50 (T-47D; read-out: GI50): 12.6 µM
- CC50 (T-47D; [1]): > 100 µM
